Three compounds from patent publication US7259183B2, “Indole, indazole and indoline derivatives as CETP inhibitors” (Hoffmann-La Roche Inc., priority 2004, dated 2007) can be followed below.

This assay addresses T1, CETP (Homo sapiens, UniProt P11597).
T1 sequence (P11597 18-493): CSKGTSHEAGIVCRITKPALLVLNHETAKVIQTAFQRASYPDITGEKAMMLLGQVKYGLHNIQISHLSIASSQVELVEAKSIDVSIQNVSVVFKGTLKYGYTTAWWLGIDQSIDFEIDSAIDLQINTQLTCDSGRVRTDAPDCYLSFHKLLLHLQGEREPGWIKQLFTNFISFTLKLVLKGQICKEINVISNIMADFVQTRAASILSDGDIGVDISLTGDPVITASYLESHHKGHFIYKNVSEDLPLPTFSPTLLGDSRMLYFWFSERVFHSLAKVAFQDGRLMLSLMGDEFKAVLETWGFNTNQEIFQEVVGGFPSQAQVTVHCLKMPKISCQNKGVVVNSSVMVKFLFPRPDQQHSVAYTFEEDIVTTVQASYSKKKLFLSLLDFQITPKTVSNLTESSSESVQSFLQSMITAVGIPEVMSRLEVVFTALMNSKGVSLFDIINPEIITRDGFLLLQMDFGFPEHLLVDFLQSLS
Kind of assay: CETP inhibition, buffer assay system (SPA, radiolabeled cholesteryl ester transfer from HDL to LDL). It is filed as biochemical. The following applies: partially purified CETP, selected compounds, read-out: 1C50. The method, then: Activity of CETP inhibitors was determined using a buffer assay system. Partially purified CETP transferred radiolabeled cholesteryl ester from HDL donor particles to biotin-labeled LDL acceptor particles. The reaction was stopped by addition of streptavidin-coupled scintillation proximity assay (SPA) beads. These beads captured the biotinylated acceptor particles and transferred radioactivity was measured. The assay system was purchased and performed according to manufacturer's recommendations (Amersham Biosciences). Inhibitory activity of compounds was determined as percentage of positive control activity containing CETP together with donor and acceptor particles. Serial dilution of compounds was performed in order to determine the IC50 values.
As for `CC(C)(C)c1ccc(CN(CCOc2ccc(F)cc2)C(=O)c2cccc3cc[nH]c23)cc1` [Compound 90, 1H-Indole-7-carboxylic acid (4-tert-butyl-benzyl)-[2-(4-fluoro-phenoxy)-ethyl]-amide], the IC50 was found to be 202 nM.
`CC(C)(C)c1ccc(CN(CCc2ccc(F)cc2)C(=O)c2cccc3c2NCC3)cc1` [Compound 76, 2,3-Dihydro-1H-indole-7-carboxylic acid (4-tert-butyl-benzyl)-[2-(4-fluoro-phenyl)-ethyl]-amide]: the IC50 came out at 58 nM.
As for `CC(C)CCN(Cc1ccc(C(C)(C)C)cc1)C(=O)c1cccc2cc[nH]c12` [Compound 1, 1H-Indole-7-carboxylic acid (4-tert-butyl-benzyl)-(3-methyl-butyl)-amide], the figure is 539 nM.
